Laboratory results from ChEMBL document CHEMBL2424646, “Design, synthesis and biological evaluation of novel mansonone E derivatives prepared via CuAAC click chemistry as topoisomerase II inhibitors” (Eur J Med Chem, 2013).
The source made the active and inactive calls. The calls are words filed in the database; no cut-off is given here.

How the values were obtained:
HeLa = experiment: Cytotoxicity against human HeLa cells after 48 hrs by MTT assay; assay type: functional, cell-based
HL-60 = experiment: Cytotoxicity against human HL60 cells after 48 hrs by MTT assay; assay type: functional, cell-based; conditions: HL-60, 48 h
K562 = experiment: Cytotoxicity against human K562 cells after 48 hrs by MTT assay; assay type: functional, cell-based; conditions: K562, 48 h
A549 = experiment: Cytotoxicity against human A549 cells after 48 hrs by MTT assay; assay type: functional, cell-based; conditions: A549, 48 h
[1] = biological target: T1, DNA topoisomerase 2-alpha (Homo sapiens, UniProt P11388); experiment: Inhibition of human DNA topoisomerase 2alpha-mediated relaxation of supercoiled pBR322 at 20 uM after 30 mins by agarose gel electrophoresis
T1 sequence (P11388 whole entry): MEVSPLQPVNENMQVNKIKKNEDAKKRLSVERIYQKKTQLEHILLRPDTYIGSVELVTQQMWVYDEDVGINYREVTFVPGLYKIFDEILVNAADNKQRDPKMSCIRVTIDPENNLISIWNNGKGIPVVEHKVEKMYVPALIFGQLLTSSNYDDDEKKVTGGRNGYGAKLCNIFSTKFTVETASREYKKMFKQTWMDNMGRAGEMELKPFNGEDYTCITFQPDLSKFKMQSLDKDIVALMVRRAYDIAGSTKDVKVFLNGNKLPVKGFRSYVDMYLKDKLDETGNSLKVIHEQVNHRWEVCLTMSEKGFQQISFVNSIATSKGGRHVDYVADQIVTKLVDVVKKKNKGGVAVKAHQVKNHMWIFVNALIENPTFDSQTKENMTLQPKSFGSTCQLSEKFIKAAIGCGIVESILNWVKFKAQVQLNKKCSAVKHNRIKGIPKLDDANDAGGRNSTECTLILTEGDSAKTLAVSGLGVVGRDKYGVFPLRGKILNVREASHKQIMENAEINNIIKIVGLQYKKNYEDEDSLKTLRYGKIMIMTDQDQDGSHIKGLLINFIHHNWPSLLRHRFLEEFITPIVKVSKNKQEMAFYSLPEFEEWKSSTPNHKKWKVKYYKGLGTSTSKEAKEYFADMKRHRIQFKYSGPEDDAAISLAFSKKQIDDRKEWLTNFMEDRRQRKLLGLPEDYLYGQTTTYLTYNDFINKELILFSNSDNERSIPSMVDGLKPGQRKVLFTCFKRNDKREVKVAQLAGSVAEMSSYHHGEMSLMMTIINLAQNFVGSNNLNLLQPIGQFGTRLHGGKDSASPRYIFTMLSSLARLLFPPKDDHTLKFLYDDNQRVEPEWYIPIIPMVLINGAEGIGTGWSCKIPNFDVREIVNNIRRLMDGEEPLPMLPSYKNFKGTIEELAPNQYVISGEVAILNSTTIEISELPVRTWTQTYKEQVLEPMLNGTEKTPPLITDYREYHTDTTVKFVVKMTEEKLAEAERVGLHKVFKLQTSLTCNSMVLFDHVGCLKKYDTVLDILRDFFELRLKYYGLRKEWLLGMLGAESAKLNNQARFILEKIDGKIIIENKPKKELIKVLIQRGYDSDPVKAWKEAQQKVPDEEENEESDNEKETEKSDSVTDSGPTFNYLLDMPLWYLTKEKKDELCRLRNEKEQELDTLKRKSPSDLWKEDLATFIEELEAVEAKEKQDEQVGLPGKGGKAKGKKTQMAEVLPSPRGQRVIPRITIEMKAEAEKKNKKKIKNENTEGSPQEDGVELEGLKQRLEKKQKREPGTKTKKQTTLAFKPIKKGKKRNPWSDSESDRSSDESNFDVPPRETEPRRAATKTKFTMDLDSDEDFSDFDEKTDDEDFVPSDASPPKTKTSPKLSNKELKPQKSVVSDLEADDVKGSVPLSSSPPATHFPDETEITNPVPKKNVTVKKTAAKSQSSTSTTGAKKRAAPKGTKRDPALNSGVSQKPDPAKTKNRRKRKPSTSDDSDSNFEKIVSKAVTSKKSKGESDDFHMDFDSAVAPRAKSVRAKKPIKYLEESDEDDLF

[2] = biological target: T1, DNA topoisomerase 2-alpha; experiment: Inhibition of human DNA topoisomerase 2alpha using pBR322 DNA at 2 uM after 30 mins by agarose gel electrophoresis
[3] = biological target: T1, DNA topoisomerase 2-alpha; experiment: Ratio of mansonone-E IC50 to compound IC50 for human DNA topoisomerase 2alpha
[4] = biological target: T1, DNA topoisomerase 2-alpha; experiment: Inhibition of human DNA topoisomerase 2alpha using pBR322 DNA after 30 mins by agarose gel electrophoresis
[5] = biological target: T1, DNA topoisomerase 2-alpha; conditions: 100 uM
Description: Inhibition of human topoisomerase 2alpha assessed as formation of linear form of supercoiled pBR322 DNA at 100 uM after 30 mins by agarose gel electrophoresis

[6] = biological target: T1, DNA topoisomerase 2-alpha; experiment: Inhibition of human topoisomerase 2alpha assessed as formation of linear form of supercoiled pBR322 DNA at 50 uM after 30 mins by agarose gel electrophoresis
[7] = biological target: T2, DNA topoisomerase 1 (Homo sapiens) (UniProt P11387); experiment: Inhibition of DNA topoisomerase 1 (unknown origin)-mediated relaxation of supercoiled pBR322 at 50 uM after 30 mins by agarose gel electrophoresis
T2 sequence (whole entry): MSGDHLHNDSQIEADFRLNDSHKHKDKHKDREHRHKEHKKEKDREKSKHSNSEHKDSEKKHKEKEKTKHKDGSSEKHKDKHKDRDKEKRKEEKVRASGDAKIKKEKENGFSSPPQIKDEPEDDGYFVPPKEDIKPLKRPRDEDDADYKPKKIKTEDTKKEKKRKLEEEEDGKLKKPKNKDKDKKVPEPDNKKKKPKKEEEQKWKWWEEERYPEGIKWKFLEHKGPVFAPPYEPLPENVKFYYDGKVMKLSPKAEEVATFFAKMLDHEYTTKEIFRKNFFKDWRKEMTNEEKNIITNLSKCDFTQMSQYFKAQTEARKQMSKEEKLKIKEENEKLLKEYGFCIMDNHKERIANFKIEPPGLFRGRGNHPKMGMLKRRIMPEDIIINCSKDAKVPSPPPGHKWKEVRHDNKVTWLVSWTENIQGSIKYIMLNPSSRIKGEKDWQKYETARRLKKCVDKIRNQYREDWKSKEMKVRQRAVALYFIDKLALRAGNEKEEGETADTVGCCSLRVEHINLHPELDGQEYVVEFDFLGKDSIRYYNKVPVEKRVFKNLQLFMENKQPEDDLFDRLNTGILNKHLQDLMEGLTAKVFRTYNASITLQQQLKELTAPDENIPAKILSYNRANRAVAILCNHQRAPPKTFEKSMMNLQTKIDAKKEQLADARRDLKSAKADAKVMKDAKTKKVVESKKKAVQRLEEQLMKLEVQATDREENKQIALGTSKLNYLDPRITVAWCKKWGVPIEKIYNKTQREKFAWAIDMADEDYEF

Compound	IC50 (HeLa) [µM]	IC50 (HL-60) [µM]	IC50 (K562) [µM]	IC50 (A549) [µM]	inhibition [1]	inhibition [2]	Ratio IC50 [3]	IC50 [4] [µM]	inhibition [5]	inhibition [6]	inhibition [7]
COc1ccc(-c2cn(C3COC4=C(Br)C(=O)C(=O)c5cccc3c54)nn2)cc1 (stereo unspecified)	26.7	10.3	12.7	45.8	Active	Active	–	–	–	–	–
CCCCCc1ccc(-c2cn(C3COC4=C(Br)C(=O)C(=O)c5cccc3c54)nn2)cc1 (stereo unspecified)	7.72	2.34	4.12	15	Active	Active	20	0.92	–	–	–
COC(=O)c1cn(C2COC3=C(Br)C(=O)C(=O)c4cccc2c43)nn1 (stereo unspecified)	> 50	> 50	> 50	> 50	Active	Active	–	–	–	–	–
O=C1C(=O)c2cccc3c2C(=C1Br)OCC3n1cc(-c2ccccc2)nn1 (stereo unspecified)	42.9	29.3	40.1	50	Active	Active	–	–	–	–	–
O=C1C(=O)c2cccc3c2C(=C1Cl)OCC3n1cc(-c2ccccc2)nn1 (stereo unspecified)	70.2	18.4	21.4	84.5	Active	Active	–	–	–	–	–
O=C1C(=O)c2cccc3c2C(=C1Br)OCC3n1cc(-c2ccccn2)nn1 (stereo unspecified)	16.2	2.11	3.23	15.3	Active	Active	–	–	–	–	–
COC(=O)c1cn(C2COC3=C(Cl)C(=O)C(=O)c4cccc2c43)nn1 (stereo unspecified)	> 100	98	> 50	> 100	Active	Active	–	–	–	–	–
CCCCc1ccc(-c2cn(C3COC4=C(Cl)C(=O)C(=O)c5cccc3c54)nn2)cc1 (stereo unspecified)	18	2.55	5.67	11.4	Active	Active	–	–	–	–	–
COC(=O)c1nnn(C2COC3=C(Cl)C(=O)C(=O)c4cccc2c43)c1C(=O)OC (stereo unspecified)	> 100	> 100	> 50	> 100	Active	Active	–	–	–	–	–
CCOC(=O)c1cn(C2COC3=C(Br)C(=O)C(=O)c4cccc2c43)nn1 (stereo unspecified)	> 50	> 50	> 50	> 50	Active	Active	–	–	–	–	–
CCc1ccc(-c2cn(C3COC4=C(Br)C(=O)C(=O)c5cccc3c54)nn2)cc1 (stereo unspecified)	16.7	4.94	14.4	22.9	Active	Active	–	–	–	–	–
COc1ccc(-c2cn(C3COC4=C(Cl)C(=O)C(=O)c5cccc3c54)nn2)cc1 (stereo unspecified)	40.9	7.08	29.8	51.1	Active	Active	–	–	–	–	–
O=C1C(=O)c2cccc3c2C(=C1Br)OCC3n1cc(-c2ccc(Cl)cc2)nn1 (stereo unspecified)	30.6	15.4	29	50	Active	Active	–	–	–	–	–
COc1cc([C@@H]2c3cc4c(cc3[C@@H](O[C@@H]3O[C@@H]5CO[C@@H](C)O[C@H]5[C@H](O)[C@H]3O)[C@H]3COC(=O)[C@H]23)OCO4)cc(OC)c1O [ETOPOSIDE]	63.7	0.33	8.45	–	–	–	–	–	Active	–	–
Cc1ccc(-c2cn(C3COC4=C(Cl)C(=O)C(=O)c5cccc3c54)nn2)cc1 (stereo unspecified)	32.8	19.8	18.3	55.5	Active	Active	–	–	–	–	–
CC1=C2OCC(C)c3ccc(C)c(c32)C(=O)C1=O (stereo unspecified) [MANSONONE E]	15.7	10.6	12.2	17.5	–	–	–	18.6	–	–	–
O=C1C(=O)c2cccc3c2C(=C1Cl)OCC3n1cc(-c2ccccn2)nn1 (stereo unspecified)	28.9	2.7	5.87	17.8	Active	Active	–	–	–	–	–
O=C1C(=O)c2cccc3c2C(=C1Cl)OCC3n1cc(-c2ccc(Cl)cc2)nn1 (stereo unspecified)	67.4	12.2	20.6	77.7	Active	Active	–	–	–	–	–
O=C1C(=O)c2cccc3c2C(=C1Br)OCC3n1cc(-c2ccc(F)cc2)nn1 (stereo unspecified)	30.2	12.3	35.5	50	Active	Active	–	–	–	–	–
CCCc1ccc(-c2cn(C3COC4=C(Cl)C(=O)C(=O)c5cccc3c54)nn2)cc1 (stereo unspecified)	24.4	2.38	3.86	28.3	Active	Active	–	–	–	–	–
COC(=O)c1nnn(C2COC3=C(Br)C(=O)C(=O)c4cccc2c43)c1C(=O)OC (stereo unspecified)	> 50	> 50	> 50	> 50	Active	Active	–	–	–	–	–
CCCCCc1ccc(-c2cn(C3COC4=C(Cl)C(=O)C(=O)c5cccc3c54)nn2)cc1 (stereo unspecified)	16.9	3.54	3.51	12.8	Active	Active	–	–	–	–	–
O=C1C(=O)c2cccc3c2C(=C1Br)OCC3n1cc(C2CC2)nn1 (stereo unspecified)	43.1	22.7	40.2	> 50	Active	Active	–	–	–	–	–
CCOC(=O)c1cn(C2COC3=C(Cl)C(=O)C(=O)c4cccc2c43)nn1 (stereo unspecified)	> 100	> 100	> 50	> 100	Active	Active	–	–	–	–	–
CCCCc1ccc(-c2cn(C3COC4=C(Br)C(=O)C(=O)c5cccc3c54)nn2)cc1 (stereo unspecified)	12.5	2.55	3.87	18.3	Active	Active	–	–	–	–	–
Cc1ccc(-c2cn(C3COC4=C(Br)C(=O)C(=O)c5cccc3c54)nn2)cc1 (stereo unspecified)	26.6	10.3	18.8	42.9	Active	Active	–	–	–	–	–
CCCc1ccc(-c2cn(C3COC4=C(Br)C(=O)C(=O)c5cccc3c54)nn2)cc1 (stereo unspecified)	11.8	1.49	2.82	17.3	Active	Active	–	–	–	inactive	–
CCc1ccc(-c2cn(C3COC4=C(Cl)C(=O)C(=O)c5cccc3c54)nn2)cc1 (stereo unspecified)	29.1	2.9	10.6	29.5	Active	Active	–	–	–	–	inactive
O=C1C(=O)c2cccc3c2C(=C1Cl)OCC3n1cc(C2CC2)nn1 (stereo unspecified)	> 100	50	50	> 100	Active	Active	–	–	–	–	–
O=C1C(=O)c2cccc3c2C(=C1Cl)OCC3n1cc(-c2ccc(F)cc2)nn1 (stereo unspecified)	48.4	10.7	16.7	43.1	Active	Active	–	–	–	–	–
